Laboratory results published in the NIST ThermoML archive (doi:10.1016/j.jct.2008.09.012).
± gives the expanded uncertainty stated by the source.

Assay: molar enthalpy of vaporization or sublimation
Conditions: 298.15 K; Liquid; Calvet microcalorimetry

molar enthalpy	Compound
48.7 ± 2.2 kJ/mol	COc1ccc(F)cc1 [1-fluoro-4-methoxybenzene]
48.1 ± 2.2 kJ/mol	COc1cccc(F)c1 [3-fluoroanisole]
52.2 ± 2.2 kJ/mol	COc1ccccc1F [2-fluoroanisole]
